Details of series [1]: method as in PMID 23693152. The following applies: cited from earlier work.
Details of series [2]: method as in PMID 23693152. To be noted: cited from earlier work. The source holds these as a separate data set.
The target of another series is Mer (Homo sapiens, UniProt Q12866). The series can be described thus: Microfluidic capillary electrophoresis (MCE) enzymatic assay, Mer. Format: biochemical. The following applies: ATP at Km.
For a further series, the target named is Flt3 (Homo sapiens, UniProt P36888). The series can be described thus: Microfluidic capillary electrophoresis (MCE) enzymatic assay, Flt3. Format: biochemical. To be noted: ATP at Km.
In series [3] the test system is AML cell lines expressing Mer or Flt3 internal tandem duplication (ITD). The series can be described thus: Apoptosis by flow cytometry, AML cell lines expressing Mer or Flt3-ITD (all lines together). The following applies: 72 hours, Mer-expressing or Flt3-ITD cell lines. On the technique in general: Flow cytometry measures light scatter and fluorescence of single cells or particles in a stream.
Protocol: To assess apoptosis, AML cell lines were cultured at 3 × 10^5 cells, and 1 × 10^6 AML patient blasts were co-cultured with 3.5 × 10^5 HS27 cells per condition in 24 well plates, and treated for 72 hours. […] Flow cytometry data were analyzed using Modfit Cell Cycle Analysis software (Verity Software House). In replating assays, cells were similarly plated and treated, then harvested cells were washed twice, and 1.5 × 10^4 viable cells/ml were cultured in cRPMI for six days. Six days after replating, viable myeloblast count was determined by trypan blue exclusion using a Cedex XS Analyzer (Roche).

Chain of Flt3 (P36888 27-993): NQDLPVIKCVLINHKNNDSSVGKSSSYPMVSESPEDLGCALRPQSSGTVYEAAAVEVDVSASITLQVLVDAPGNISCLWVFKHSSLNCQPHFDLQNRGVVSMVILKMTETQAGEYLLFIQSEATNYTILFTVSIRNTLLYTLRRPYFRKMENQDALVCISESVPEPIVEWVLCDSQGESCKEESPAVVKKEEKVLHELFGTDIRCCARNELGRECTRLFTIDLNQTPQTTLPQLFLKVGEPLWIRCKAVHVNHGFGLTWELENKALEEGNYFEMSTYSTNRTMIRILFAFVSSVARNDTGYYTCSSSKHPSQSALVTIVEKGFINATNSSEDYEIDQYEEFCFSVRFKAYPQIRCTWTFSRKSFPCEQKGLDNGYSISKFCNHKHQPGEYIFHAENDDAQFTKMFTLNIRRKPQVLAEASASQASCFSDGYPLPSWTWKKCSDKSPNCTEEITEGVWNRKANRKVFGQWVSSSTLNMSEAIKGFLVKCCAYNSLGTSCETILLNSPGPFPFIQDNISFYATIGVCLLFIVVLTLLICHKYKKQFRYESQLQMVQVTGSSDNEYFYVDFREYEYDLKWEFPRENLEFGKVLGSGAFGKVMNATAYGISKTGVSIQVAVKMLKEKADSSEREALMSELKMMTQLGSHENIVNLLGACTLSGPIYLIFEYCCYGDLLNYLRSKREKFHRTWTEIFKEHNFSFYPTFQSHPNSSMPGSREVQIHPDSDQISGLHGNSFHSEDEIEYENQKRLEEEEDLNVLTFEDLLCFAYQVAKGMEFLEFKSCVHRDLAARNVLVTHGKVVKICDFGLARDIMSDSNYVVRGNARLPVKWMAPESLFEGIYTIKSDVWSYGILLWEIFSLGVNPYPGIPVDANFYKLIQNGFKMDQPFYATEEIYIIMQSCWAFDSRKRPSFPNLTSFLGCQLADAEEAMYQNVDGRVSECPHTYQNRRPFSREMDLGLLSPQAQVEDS
Chain of Mer (Q12866 21-999): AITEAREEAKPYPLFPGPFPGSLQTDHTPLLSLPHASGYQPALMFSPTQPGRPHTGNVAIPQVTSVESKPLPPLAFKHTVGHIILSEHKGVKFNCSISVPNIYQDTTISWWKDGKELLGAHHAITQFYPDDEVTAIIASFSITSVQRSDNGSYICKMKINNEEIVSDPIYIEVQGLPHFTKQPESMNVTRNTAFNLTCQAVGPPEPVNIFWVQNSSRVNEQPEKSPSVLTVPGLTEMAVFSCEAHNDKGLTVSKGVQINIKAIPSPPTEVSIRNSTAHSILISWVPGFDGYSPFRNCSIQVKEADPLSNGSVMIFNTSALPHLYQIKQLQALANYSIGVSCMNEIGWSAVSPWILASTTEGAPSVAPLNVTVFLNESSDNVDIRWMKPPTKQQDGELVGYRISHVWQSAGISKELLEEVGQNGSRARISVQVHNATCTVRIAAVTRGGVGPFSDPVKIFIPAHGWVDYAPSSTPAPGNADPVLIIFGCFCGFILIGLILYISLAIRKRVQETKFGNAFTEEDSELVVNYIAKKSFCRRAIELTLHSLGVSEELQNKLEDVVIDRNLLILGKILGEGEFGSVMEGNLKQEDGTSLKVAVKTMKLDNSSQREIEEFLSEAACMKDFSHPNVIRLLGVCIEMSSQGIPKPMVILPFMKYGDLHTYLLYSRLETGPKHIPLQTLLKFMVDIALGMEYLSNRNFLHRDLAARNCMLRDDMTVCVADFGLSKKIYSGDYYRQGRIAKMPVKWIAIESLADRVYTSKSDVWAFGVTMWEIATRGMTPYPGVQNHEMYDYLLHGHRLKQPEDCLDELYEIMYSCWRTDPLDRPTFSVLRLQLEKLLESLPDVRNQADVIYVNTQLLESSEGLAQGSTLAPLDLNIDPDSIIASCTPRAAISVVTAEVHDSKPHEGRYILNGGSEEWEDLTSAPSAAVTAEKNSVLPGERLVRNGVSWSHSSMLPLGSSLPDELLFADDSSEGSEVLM

For the molecule `CCCCNc1ncc2c(-c3ccc(S(=O)(=O)N4CCOCC4)cc3)nn(C3CCC(O)CC3)c2n1` (centres unmarked) [UNC1062], the “Solubility (in words)” value in series [1] was “low solubility”. The “In vivo pharmacokinetic properties (in words)” value in series [2] is reported as “poor in vivo pharmacokinetic properties”.
Consider `CCCCN(C)c1ncc2c(-c3ccc(F)cc3)nn(C[C@H]3CC[C@H](N)CC3)c2n1` [UNC1653], for which the IC50 (commonly the concentration that gives 50% inhibition) amounted to 560 nM at Mer and 220 nM against Flt3. Besides, in series [3], the “Induction of apoptosis (in words)” value is reported as “did not induce apoptosis”.

These data come from PMC4466645 (Oncotarget, 2015).
